From patent US20250263424A1, “KRAS INHIBITORS” (Bristol-Myers Squibb Company, priority 2022, published 2025)

These compounds were tested against Recombinant GMPPNP-loaded KRAS G12C (KRAS-G12C(ON), active form) (Homo sapiens, UniProt P01116, G12C) (assay: KRAS G12C RAF Disruption Assay (HTRF)). Conditions: GMPPNP-loaded KRAS G12C 5 nM, GST-RAF1 RBD 9 nM, values given in μM, read-out: KRASG12C RAF Disruption Assay (IC50).
Assay type: biochemical
Description: This is a functional assay that measures activity of compounds against […]., the active form of KRAS G12C. Recombinant GMPPNP-loaded KRAS G12C (5 nM) was treated with compound at room temperature for 20 minutes in assay buffer (50 mM Tris pH 7.5, 100 mM NaCl, 1 mM MgCl2, 1 mM DTT, 100 μg/ml BSA). Recombinant GST-RAF1 RBD (9 nM) was added, and the reaction mixture was incubated for 20 minutes. SA-Tb (0.25 nM) was added, and the reaction mixture was incubated for 3 hours. HTRF signal was measured (PerkinElmer Envision), the signal ratio (λem 520/λem 495) was calculated, and IC50 values were calculated from the dose-response curve.

Sequence of Recombinant GMPPNP-loaded KRAS G12C (KRAS-G12C(ON), active form) (P01116 1-188 isoform P01116-2 G12C): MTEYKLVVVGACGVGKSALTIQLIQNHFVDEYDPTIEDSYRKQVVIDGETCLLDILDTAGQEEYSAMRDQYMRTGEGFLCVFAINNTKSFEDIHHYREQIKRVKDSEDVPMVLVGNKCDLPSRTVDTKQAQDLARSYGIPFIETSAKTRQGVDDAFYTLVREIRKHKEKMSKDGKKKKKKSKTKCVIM

| Structure (SMILES) | IC50 [µM] |
| --- | --- |
| Cc1cc(N)nc(-c2c(Cl)cc3c(N4C[C@]5(NC(=O)/C(F)=C/c6nccs6)CC[C@H]4C5)nc(OC[C@@H]4CCCN4C)nc3c2F)c1C(F)(F)F (atropisomer, axis not shown; (M)) [Example 48, (2Z)-N-[(1S,4S)-2-[(7M)-7-[6-amino-4-methyl-3-(trifluoromethyl)pyridin-2-yl]-6-chloro-8-fluoro-2-{[(2S)-1-methylpyrrolidin-2-yl]methoxy}quinazolin-4-yl]-2-azabicyclo[2.2.1]heptan-4-yl]-2-fluoro-3-(thiazol-2-yl)prop-2-enamide] | 2.59 |
| C[C@H]1CN(C(=O)/C(F)=C/c2ccccn2)CCN1c1nc(OC[C@@H]2CCCN2C)nc2c(F)c(-c3cccc4cccc(Cl)c34)c(Cl)cc12 (single isomer, unassigned) [Example 3] | 5.5 |
| Cc1cc(N)nc(-c2c(Cl)cc3c(N4CCC5C4CCN5C(=O)/C(F)=C/c4nccs4)nc(OC[C@]45CCCN4C[C@H](F)C5)nc3c2F)c1C(F)(F)F (single isomer, unassigned) [Example 25, Isomer 1] | 14.1 |
| Cc1cc(N)nc(-c2c(Cl)cc3c(N[C@H]4C[C@@H](NC(=O)/C(F)=C/c5nccs5)C4)nc(OC[C@]45CCCN4C[C@H](F)C5)nc3c2F)c1C(F)(F)F (atropisomer, axis not shown; (M)) [Example 13, (Z)-N-((1S,3s)-3-(((7M)-7-(6-amino-4-methyl-3-(trifluoromethyl)pyridin-2-yl)-6-chloro-8-fluoro-2-(((2R,7aR)-2-fluorotetrahydro-1H-pyrrolizin-7a(5H)-yl)methoxy)quinazolin-4-yl)amino)cyclobutyl)-2-fluoro-3-(thiazol-2-yl)acrylamide] | 1.1 |
| Cc1cc(N)nc(-c2c(Cl)cc3c(N4C[C@H]5CC[C@@H]4[C@@H]5NC(=O)/C(F)=C/c4nccs4)nc(OC[C@@H]4CCCN4C)nc3c2F)c1C(F)(F)F (atropisomer, axis not shown; (M)) [Example 49, (2Z)-N-[(1R,4R,7R)-2-[(7M)-7-[6-amino-4-methyl-3-(trifluoromethyl)pyridin-2-yl]-6-chloro-8-fluoro-2-{[(2S)-1-methylpyrrolidin-2-yl]methoxy}quinazolin-4-yl]-2-azabicyclo[2.2.1]heptan-7-yl]-2-fluoro-3-(1,3-thiazol-2-yl)prop-2-enamide] | 2.26 |
| Cc1cc(N)nc(-c2c(Cl)cc3c(N4CCN(C(=O)/C(F)=C/c5nccs5)[C@@H](CC(N)=O)C4)nc(OC[C@@H]4CCCN4C)nc3c2F)c1C(F)(F)F (atropisomer, axis not shown; (M)) [Example 47, 2-[(2S)-4-[(7M)-7-[6-amino-4-methyl-3-(trifluoromethyl)pyridin-2-yl]-6-chloro-8-fluoro-2-{[(2S)-1-methylpyrrolidin-2-yl]methoxy}quinazolin-4-yl]-1-[(2Z)-2-fluoro-3-(thiazol-2-yl)prop-2-enoyl]piperazin-2-yl]acetamide] | 1.33 |
| Cc1cc(N)nc(-c2c(Cl)cc3c(N4CC5CCC4CN5C(=O)/C(F)=C/c4ccccn4)nc(OC[C@@H]4CCCN4C)nc3c2F)c1C(F)(F)F (stereo partly drawn) [Example 6, (Z)-1-(5-((7M)-7-(6-amino-4-methyl-3-(trifluoromethyl)pyridin-2-yl)-6-chloro-8-fluoro-2-(((S)-1-methylpyrrolidin-2-yl)methoxy)quinazolin-4-yl)-2,5-diazabicyclo[2.2.2]octan-2-yl)-2-fluoro-3-(pyridin-2-yl)prop-2-en-1-one] | 4.9 |
| Cc1cc(N)nc(-c2c(Cl)cc3c(N4CC5CCC(C4)N5C(=O)/C(F)=C/c4ccccn4)nc(OC[C@]45CCCN4C[C@H](F)C5)nc3c2F)c1C(F)(F)F (single isomer, unassigned) [Example 5] | 2.7 |

Same assay, conditions: GMPPNP-loaded KRAS G12C 5 nM, GST-RAF1 RBD 9 nM, values in nM, read-out: KRASG12C RAF Disruption Assay (IC50)

| Structure (SMILES) | IC50 [µM] |
| --- | --- |
| COc1ccc(Cl)cc1-c1ccc2c(N3CCN(C(=O)/C(F)=C/c4nccs4)[C@@H](CC#N)C3)nc(OC[C@@H]3CCCN3C)nc2c1F [Example 62, 2-((S)-4-(7-(5-chloro-2-methoxyphenyl)-8-fluoro-2-(((S)-1-methylpyrrolidin-2-yl)methoxy)quinazolin-4-yl)-1-((Z)-2-fluoro-3-(thiazol-2-yl)acryloyl)piperazin-2-yl)acetonitrile] | 3.1 |
| COc1ccc(Cl)cc1-c1ccc2c(N3CCN(C(=O)/C(F)=C/c4ncccn4)[C@@H](CC#N)C3)nc(OC[C@@H]3CCCN3C)nc2c1F [Example 63, 2-((S)-4-(7-(5-chloro-2-methoxyphenyl)-8-fluoro-2-(((S)-1-methylpyrrolidin-2-yl)methoxy)quinazolin-4-yl)-1-((Z)-2-fluoro-3-(pyrimidin-2-yl)acryloyl)piperazin-2-yl)acetonitrile] | 9.8 |
| COCCCN1CCC(Oc2nc(N3CCN(C(=O)/C(F)=C/c4ccccn4)[C@@H](CC#N)C3)c3ccc(-c4cccc5cccc(Cl)c45)c(F)c3n2)CC1 [Example 73, (S,Z)-2-(4-(7-(8-chloronaphthalen-1-yl)-8-fluoro-2-((1-(3-methoxypropyl)piperidin-4-yl)oxy)quinazolin-4-yl)-1-(2-fluoro-3-(pyridin-2-yl)acryloyl)piperazin-2-yl)acetonitrile] | 0.71 |
| CN1CCC[C@H]1COc1nc(N2CCN(C(=O)/C(F)=C/c3ncccn3)CC2)c2ccc(-c3cc(O)cc4ccccc34)c(F)c2n1 [Example 32, (S,Z)-2-fluoro-1-(4-(8-fluoro-7-(3-hydroxynaphthalen-1-yl)-2-((1-methylpyrrolidin-2-yl)methoxy)quinazolin-4-yl)piperazin-1-yl)-3-(pyrimidin-2-yl)prop-2-en-1-one] | 0.29 |
| CN1CCC[C@H]1COc1nc(N2CCN(C(=O)/C(F)=C/c3ccccn3)[C@@H](CC#N)C2)c2ccc(-c3cc(O)cc4ccccc34)c(F)c2n1 [Example 24, 2-((S)-1-((Z)-2-fluoro-3-(pyridin-2-yl)acryloyl)-4-(8-fluoro-7-(3-hydroxynaphthalen-1-yl)-2-(((S)-1-methylpyrrolidin-2-yl)methoxy)quinazolin-4-yl)piperazin-2-yl)acetonitrile] | 0.022 |
| N#CC[C@H]1CN(c2nc(OC[C@@]34CCCN3C[C@H](F)C4)nc3c(F)c(-c4cccc5cccc(Cl)c45)ccc23)CCN1C(=O)/C(F)=C/c1ccccn1 [Example 41, 2-((S)-4-(7-(8-chloronaphthalen-1-yl)-8-fluoro-2-(((2R,7aS)-2-fluorotetrahydro-1H-pyrrolizin-7a(5H)-yl)methoxy)quinazolin-4-yl)-1-((Z)-2-fluoro-3-(pyridin-2-yl)acryloyl)piperazin-2-yl)acetonitrile] | 0.046 |
| Cc1ccc2[nH]ncc2c1-c1ccc2c(N3CCN(C(=O)/C(F)=C/c4ccccn4)[C@@H](CC#N)C3)nc(OC[C@@]34CCCN3C[C@H](F)C4)nc2c1F [Example 76, 2-((2S)-4-(8-fluoro-2-(((2R,7aS)-2-fluorotetrahydro-1H-pyrrolizin-7a(5H)-yl)methoxy)-7-(5-methyl-1H-indazol-4-yl)quinazolin-4-yl)-1-((Z)-2-fluoro-3-(pyridin-2-yl)acryloyl)piperazin-2-yl)acetonitrile] | 0.05 |
| COc1ccc(Cl)cc1-c1ccc2c(N3CCN(C(=O)/C(F)=C/c4ccccn4)[C@@H](CC#N)C3)nc(OC[C@@H]3CCCN3C)nc2c1F [Example 61, 2-((S)-4-(7-(5-chloro-2-methoxyphenyl)-8-fluoro-2-(((S)-1-methylpyrrolidin-2-yl)methoxy)quinazolin-4-yl)-1-((Z)-2-fluoro-3-(pyridin-2-yl)acryloyl)piperazin-2-yl)acetonitrile] | 2.8 |
| CN1CCC[C@H]1COc1nc(N2CCN(C(=O)/C(F)=C/c3ncccn3)[C@@H](CC#N)C2)c2ccc(-c3cc(Cl)ccc3OC(F)(F)F)c(F)c2n1 [Example 67, 2-((S)-4-(7-(5-chloro-2-(trifluoromethoxy)phenyl)-8-fluoro-2-(((S)-1-methylpyrrolidin-2-yl)methoxy)quinazolin-4-yl)-1-((Z)-2-fluoro-3-(pyrimidin-2-yl)acryloyl)piperazin-2-yl)acetonitrile] | 4.7 |
| CN1CCC[C@H]1COc1nc(N2CCN(C(=O)/C(F)=C/c3ccccn3)[C@@H](CC#N)C2)c2ccc(-c3cc(Cl)ccc3OC(F)(F)F)c(F)c2n1 [Example 65, 2-((S)-4-(7-(5-chloro-2-(trifluoromethoxy)phenyl)-8-fluoro-2-(((S)-1-methylpyrrolidin-2-yl)methoxy)quinazolin-4-yl)-1-((Z)-2-fluoro-3-(pyridin-2-yl)acryloyl)piperazin-2-yl)acetonitrile] | 2.1 |
| N#CC[C@H]1CN(c2nc(OC[C@@]34CCCN3C[C@H](F)C4)nc3c(F)c(-c4cccc5cccc(Cl)c45)ccc23)CCN1C(=O)/C(F)=C/c1nccs1 [Example 75, 2-((S)-4-(7-(8-chloronaphthalen-1-yl)-8-fluoro-2-(((2R,7aS)-2-fluorotetrahydro-1H-pyrrolizin-7a(5H)-yl)methoxy)quinazolin-4-yl)-1-((Z)-2-fluoro-3-(thiazol-2-yl)acryloyl)piperazin-2-yl)acetonitrile] | 0.06 |
| N#CC[C@H]1CN(c2nc(OC[C@@]34CCCN3C[C@H](F)C4)nc3c(F)c(-c4cc(O)cc5ccccc45)ccc23)CCN1C(=O)/C(F)=C/c1ccccn1 [Example 39, 2-((S)-4-(8-fluoro-2-(((2R,7aS)-2-fluorotetrahydro-1H-pyrrolizin-7a(5H)-yl)methoxy)-7-(3-hydroxynaphthalen-1-yl)quinazolin-4-yl)-1-((Z)-2-fluoro-3-(pyridin-2-yl)acryloyl)piperazin-2-yl)acetonitrile] | 0.023 |
